{
  "source": "ChEMBL document CHEMBL1201862",
  "about": "“PubChem BioAssay data set” (2004)",
  "assay_in_all_cases": "inhibition of tumour cell growth, NCI panel, 48 h",
  "key": {"SF-268": {"test_system": "SF-268"}, "CCRF-CEM": {"test_system": "CCRF-CEM"}, "UACC-62": {"test_system": "UACC-62"}, "NCI/ADR-RES": {"test_system": "NCI/ADR-RES"}, "A549": {"test_system": "A549"}, "NCI-H23": {"test_system": "NCI-H23"}, "OVCAR-8": {"test_system": "OVCAR-8"}, "SK-MEL-2": {"test_system": "SK-MEL-2"}, "MOLT-4": {"test_system": "MOLT-4"}, "SNB-75": {"test_system": "SNB-75"}, "LOX IMVI": {"test_system": "LOX IMVI"}, "UACC-257": {"test_system": "UACC-257"}, "SK-OV-3": {"test_system": "SK-OV-3"}, "SF-295": {"test_system": "SF-295"}, "ACHN": {"test_system": "ACHN"}, "MCF7": {"test_system": "MCF7"}, "HOP-62": {"test_system": "HOP-62"}, "OVCAR-3": {"test_system": "OVCAR-3"}, "IGROV-1": {"test_system": "IGROV-1"}, "K562": {"test_system": "K562"}},
  "note": "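How tested: cells in 96-well plates exposed to compound for 48 hours at five concentrations. GI50: concentration for 50% inhibition of growth.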 Active and inactive are the calls of the source. Rule as the data show it: active = GI50 up to about 1.1 µM and inactive = higher.",
  "data": [
    {"smiles": "COc1ccc2c(c1)c1c(n2CCN2CCCCC2)-c2cccc(OC)c2CC1", "values": [
      {"measurement": "GI50", "setting": "SF-268", "result": "19.7 µM (inactive)"},
      {"measurement": "GI50", "setting": "CCRF-CEM", "result": "4.27 µM (inactive)"},
      {"measurement": "GI50", "setting": "UACC-62", "result": "14.2 µM (inactive)"},
      {"measurement": "GI50", "setting": "NCI/ADR-RES", "result": "18.7 µM (inactive)"},
      {"measurement": "GI50", "setting": "A549", "result": "27.9 µM (inactive)"},
      {"measurement": "GI50", "setting": "NCI-H23", "result": "14.8 µM (inactive)"},
      {"measurement": "GI50", "setting": "OVCAR-8", "result": "16.9 µM (inactive)"},
      {"measurement": "GI50", "setting": "SK-MEL-2", "result": "17.4 µM (inactive)"},
      {"measurement": "GI50", "setting": "MOLT-4", "result": "16.4 µM (inactive)"},
      {"measurement": "GI50", "setting": "SNB-75", "result": "18.5 µM (inactive)"},
      {"measurement": "GI50", "setting": "LOX IMVI", "result": "16.1 µM (inactive)"},
      {"measurement": "GI50", "setting": "UACC-257", "result": "18.2 µM (inactive)"},
      {"measurement": "GI50", "setting": "SK-OV-3", "result": "33.4 µM (inactive)"},
      {"measurement": "GI50", "setting": "SF-295", "result": "30.5 µM (inactive)"},
      {"measurement": "GI50", "setting": "ACHN", "result": "17.5 µM (inactive)"},
      {"measurement": "GI50", "setting": "MCF7", "result": "15.5 µM (inactive)"},
      {"measurement": "GI50", "setting": "HOP-62", "result": "16.7 µM (inactive)"},
      {"measurement": "GI50", "setting": "OVCAR-3", "result": "17.2 µM (inactive)"},
      {"measurement": "GI50", "setting": "IGROV-1", "result": "13.4 µM (inactive)"},
      {"measurement": "GI50", "setting": "K562", "result": "9.04 µM (inactive)"}
    ]},
    {"smiles": "CSC1=C(SC)C(=O)c2cn(C)c(=O)cc2C1=O", "values": [
      {"measurement": "GI50", "setting": "SF-268", "result": "11.8 µM (inactive)"},
      {"measurement": "GI50", "setting": "CCRF-CEM", "result": "0.245 µM (active)"},
      {"measurement": "GI50", "setting": "UACC-62", "result": "2.7 µM (inactive)"},
      {"measurement": "GI50", "setting": "NCI/ADR-RES", "result": "> 19.7 µM (inactive)"},
      {"measurement": "GI50", "setting": "A549", "result": "16.1 µM (inactive)"},
      {"measurement": "GI50", "setting": "NCI-H23", "result": "4.57 µM (inactive)"},
      {"measurement": "GI50", "setting": "OVCAR-8", "result": "> 44.1 µM (inactive)"},
      {"measurement": "GI50", "setting": "SK-MEL-2", "result": "5.06 µM (inactive)"},
      {"measurement": "GI50", "setting": "MOLT-4", "result": "1.08 µM (active)"},
      {"measurement": "GI50", "setting": "SNB-75", "result": "8.67 µM (inactive)"},
      {"measurement": "GI50", "setting": "LOX IMVI", "result": "1.78 µM (inactive)"},
      {"measurement": "GI50", "setting": "UACC-257", "result": "2.34 µM (inactive)"},
      {"measurement": "GI50", "setting": "SK-OV-3", "result": "17.5 µM (inactive)"},
      {"measurement": "GI50", "setting": "SF-295", "result": "13 µM (inactive)"},
      {"measurement": "GI50", "setting": "ACHN", "result": "1.81 µM (inactive)"},
      {"measurement": "GI50", "setting": "MCF7", "result": "2.05 µM (inactive)"},
      {"measurement": "GI50", "setting": "HOP-62", "result": "9.38 µM (inactive)"},
      {"measurement": "GI50", "setting": "OVCAR-3", "result": "1.91 µM (inactive)"},
      {"measurement": "GI50", "setting": "IGROV-1", "result": "11.1 µM (inactive)"},
      {"measurement": "GI50", "setting": "K562", "result": "0.399 µM (active)"}
    ]},
    {"smiles": "Cc1ccc(C=C(C(=O)O)C(=O)O)o1", "values": [
      {"measurement": "GI50", "setting": "SF-268", "result": "> 100 µM (inactive)"},
      {"measurement": "GI50", "setting": "CCRF-CEM", "result": "> 100 µM (inactive)"},
      {"measurement": "GI50", "setting": "UACC-62", "result": "> 100 µM (inactive)"},
      {"measurement": "GI50", "setting": "NCI/ADR-RES", "result": "> 100 µM (inactive)"},
      {"measurement": "GI50", "setting": "A549", "result": "> 100 µM (inactive)"},
      {"measurement": "GI50", "setting": "NCI-H23", "result": "> 100 µM (inactive)"},
      {"measurement": "GI50", "setting": "OVCAR-8", "result": "> 100 µM (inactive)"},
      {"measurement": "GI50", "setting": "SK-MEL-2", "result": "> 100 µM (inactive)"},
      {"measurement": "GI50", "setting": "MOLT-4", "result": "> 100 µM (inactive)"},
      {"measurement": "GI50", "setting": "SNB-75", "result": "> 100 µM (inactive)"},
      {"measurement": "GI50", "setting": "LOX IMVI", "result": "> 100 µM (inactive)"},
      {"measurement": "GI50", "setting": "UACC-257", "result": "> 100 µM (inactive)"},
      {"measurement": "GI50", "setting": "SK-OV-3", "result": "> 100 µM (inactive)"},
      {"measurement": "GI50", "setting": "SF-295", "result": "> 100 µM (inactive)"},
      {"measurement": "GI50", "setting": "ACHN", "result": "> 100 µM (inactive)"},
      {"measurement": "GI50", "setting": "MCF7", "result": "> 100 µM (inactive)"},
      {"measurement": "GI50", "setting": "HOP-62", "result": "> 100 µM (inactive)"},
      {"measurement": "GI50", "setting": "OVCAR-3", "result": "> 100 µM (inactive)"},
      {"measurement": "GI50", "setting": "IGROV-1", "result": "> 100 µM (inactive)"},
      {"measurement": "GI50", "setting": "K562", "result": "> 100 µM (inactive)"}
    ]},
    {"smiles": "C[N+](C)(CCO)CCN1c2ccccc2Sc2ccccc21", "values": [
      {"measurement": "GI50", "setting": "SF-268", "result": "> 10 µM (inactive)"},
      {"measurement": "GI50", "setting": "CCRF-CEM", "result": "> 10 µM (inactive)"},
      {"measurement": "GI50", "setting": "UACC-62", "result": "> 10 µM (inactive)"},
      {"measurement": "GI50", "setting": "NCI/ADR-RES", "result": "> 10 µM (inactive)"},
      {"measurement": "GI50", "setting": "A549", "result": "> 10 µM (inactive)"},
      {"measurement": "GI50", "setting": "NCI-H23", "result": "> 10 µM (inactive)"},
      {"measurement": "GI50", "setting": "OVCAR-8", "result": "> 10 µM (inactive)"},
      {"measurement": "GI50", "setting": "SK-MEL-2", "result": "> 10 µM (inactive)"},
      {"measurement": "GI50", "setting": "MOLT-4", "result": "> 10 µM (inactive)"},
      {"measurement": "GI50", "setting": "SNB-75", "result": "> 10 µM (inactive)"},
      {"measurement": "GI50", "setting": "LOX IMVI", "result": "> 10 µM (inactive)"},
      {"measurement": "GI50", "setting": "SK-OV-3", "result": "> 10 µM (inactive)"},
      {"measurement": "GI50", "setting": "SF-295", "result": "> 10 µM (inactive)"},
      {"measurement": "GI50", "setting": "ACHN", "result": "> 10 µM (inactive)"},
      {"measurement": "GI50", "setting": "MCF7", "result": "> 10 µM (inactive)"},
      {"measurement": "GI50", "setting": "HOP-62", "result": "> 10 µM (inactive)"},
      {"measurement": "GI50", "setting": "OVCAR-3", "result": "> 10 µM (inactive)"},
      {"measurement": "GI50", "setting": "IGROV-1", "result": "> 10 µM (inactive)"},
      {"measurement": "GI50", "setting": "K562", "result": "> 10 µM (inactive)"}
    ]},
    {"smiles": "CCNC(=O)C(C)C1CCC2(C)C=CC(=O)C(C)=C2C1O", "note": "(stereo not drawn)", "values": [
      {"measurement": "GI50", "setting": "SF-268", "result": "> 100 µM (inactive)"},
      {"measurement": "GI50", "setting": "CCRF-CEM", "result": "> 100 µM (inactive)"},
      {"measurement": "GI50", "setting": "UACC-62", "result": "> 100 µM (inactive)"},
      {"measurement": "GI50", "setting": "NCI/ADR-RES", "result": "> 100 µM (inactive)"},
      {"measurement": "GI50", "setting": "A549", "result": "99.5 µM (inactive)"},
      {"measurement": "GI50", "setting": "NCI-H23", "result": "> 100 µM (inactive)"},
      {"measurement": "GI50", "setting": "OVCAR-8", "result": "> 100 µM (inactive)"},
      {"measurement": "GI50", "setting": "SK-MEL-2", "result": "> 100 µM (inactive)"},
      {"measurement": "GI50", "setting": "MOLT-4", "result": "> 100 µM (inactive)"},
      {"measurement": "GI50", "setting": "SNB-75", "result": "> 100 µM (inactive)"},
      {"measurement": "GI50", "setting": "LOX IMVI", "result": "> 91 µM (inactive)"},
      {"measurement": "GI50", "setting": "UACC-257", "result": "> 100 µM (inactive)"},
      {"measurement": "GI50", "setting": "SK-OV-3", "result": "> 100 µM (inactive)"},
      {"measurement": "GI50", "setting": "SF-295", "result": "> 93.5 µM (inactive)"},
      {"measurement": "GI50", "setting": "MCF7", "result": "> 100 µM (inactive)"},
      {"measurement": "GI50", "setting": "HOP-62", "result": "> 100 µM (inactive)"},
      {"measurement": "GI50", "setting": "OVCAR-3", "result": "> 100 µM (inactive)"},
      {"measurement": "GI50", "setting": "IGROV-1", "result": "98.4 µM (inactive)"},
      {"measurement": "GI50", "setting": "K562", "result": "> 100 µM (inactive)"}
    ]}
  ]
}
